Assay results taken from patent US8940756B2, “Dihydronaphthyridines and related compounds useful as kinase inhibitors for the treatment of proliferative diseases” (Deciphera Pharmaceuticals, Inc., priority 2012, dated 2015).

Tests used:
[1] = target: T1, c-KIT D816V kinase (Seq ID no. 4) (Homo sapiens, UniProt P10721, D816V); assay: c-KIT D816V kinase Assay; type: biochemical; conditions: enzymatic assay, ATP 200 uM
T1 construct: D816V c-KIT (residues T544-V976 with N-terminal GST fusion, 16 nM); purchased deCODE Biostructures
Description: (§1) In this assay, the oxidation of NADH (measured by decrease in absorbance at 340 nm) was continuously monitored spectrophotometrically. […] The inhibition reaction was started by mixing serial diluted test compound with the above reaction mixture. The absorption at 340 nm was monitored continuously for 5 hours at 30° C. on Synergy 2 plate reader (BioTech).
The protein construct was prepared by deCODE Biostructures using procedures known in the art. The construct contains residues T544-V976 of cKit, an N-terminal tag, a GST-fusion sequence and a TEV cleavage site. This construct is identical to Seq ID no. 1 except for the D816V mutation.

[2] = target: T2, c-KIT T670I kinase (Seq ID no. 6) (Homo sapiens, UniProt P10721, T670I); assay: c-KIT T670I Kinase Assay; type: biochemical; conditions: enzymatic assay, ATP 200 uM
T2 construct: GST (N); TEV cleavage site (N); purchased deCODE Biostructures
Description: as §1, with “(BioTech). […] The protein construct was prepared by deCODE Biostructures using procedures known in the art. The construct contains […] of cKit, an N-terminal tag, a GST-fusion sequence and a TEV cleavage site. This construct is identical to Seq ID no.” for “(BioTech).”

[3] = target: T3, c-KIT kinase (Seq ID no. 1) (Homo sapiens, UniProt P10721); assay: c-KIT Kinase Assay (pyruvate kinase/lactate dehydrogenase coupled); type: biochemical; conditions: enzymatic assay, ATP 200 μM; read-out: KIT (wt)
T3 construct: GST (N); TEV cleavage site (N); purchased deCODE Biostructures
Description: In this assay, the oxidation of NADH (measured by decrease in absorbance at 340 nm) was continuously monitored spectrophotometrically. […] The absorption at 340 nm was monitored continuously for 2 hours at 30° C. on Synergy 2 (BioTeK). The reaction rate was calculated using the 0 to 1 h time frame. Percent inhibition was obtained by comparison of reaction rate with that of a control (i.e. with no test compound). IC50 values were calculated from a series of percent inhibition values determined at a range of inhibitor concentrations using software routines as implemented in the GraphPad Prism software package. The protein construct was prepared by deCODE Biostructures using procedures known in the art. The construct contains […] of cKit, an N-terminal tag, a GST-fusion sequence and a TEV cleavage site.

[4] = target: T4, c-KIT D816H kinase (Seq ID no. 3) (Homo sapiens, UniProt P10721, D816H); assay: c-KIT D816H Kinase Assay; type: biochemical; conditions: enzymatic assay, ATP 200 μM
T4 construct: GST (N); TEV cleavage site (N); purchased deCODE Biostructures
Description: In this assay, the oxidation of NADH (measured by decrease in absorbance at 340 nm) was continuously monitored spectrophotometrically. […] The inhibition reaction was started by mixing serial diluted test compound with the above reaction mixture. The absorption at 340 nm was monitored continuously for 6 hours at 30° C. on Synergy 2 plate reader (BioTech). […] The protein construct was prepared by deCODE Biostructures using procedures known in the art. The construct contains […] of cKit, an N-terminal tag, a GST-fusion sequence and a TEV cleavage site. This construct is identical to Seq ID no. 1 except for the D816H mutation.

[5] = target: Phospho-KIT (Tyr719) in GIST430 cells (Homo sapiens, UniProt P10721); assay: GIST430 KIT Western Blot; type: cell-based; conditions: 4 hours, read-out: pKIT suppression by western blot analysi GIST430
Description: (§2) GIST48, GIST430, and GIST882 cells were obtained from J. Fletcher (Brigham and Women's Hospital, Boston, Mass.). GIST T1 cells were obtained from B. Rubin (Cleveland Clinic, Cleveland, Ohio) and Professor Takahiro Taguchi (Kochi Medical School, Nankoku, Kochi, Japan). […] GIST430 cells were grown in Ham's F10 medium supplemented with 15% characterized fetal bovine serum (Invitrogen, Carlsbad, Calif.), 30 mg/L bovine pituitary extract (BD Biosciences, San Jose, Calif.), 0.5% Mito+ serum extender (BD Biosciences, San Jose, Calif.), 1 unit/mL penicillin G, 1 μg/ml streptomycin, and 0.29 mg/mL L-glutamine at 37° C., 5% CO2, 95% humidity. GIST T1 cells were grown in DMEM medium supplemented with 10% characterized fetal bovine serum (Invitrogen, Carlsbad, Calif.), 1 unit/mL penicillin G, 1 ng/ml streptomycin, and 0.29 mg/mL L-glutamine at 37° C., 5% CO2, and 95% humidity. Cells were allowed to expand until reaching 70-95% confluence at which point they were subcultured or harvested for assay use.
(§3) One hundred fifty thousand cells were added per well in a 24-well tissue-culture treated plate. Cells were then incubated overnight at 37° C., 5% CO2, 95% humidity. Medium was aspirated, cells were washed with PBS, and serum-free Ham's F10 medium was added. A serial dilution of test compound was added to plates containing cells and plates were incubated for 4 hours at 37° C., 5% CO2, 95% humidity. Cells were washed with PBS, then lysed. Cell lysates were separated by SDS-PAGE and transferred to PVDF. Phospho-KIT (Tyr719) was detected using an antibody from Cell Signaling Technology (Beverly, Mass.), ECL Plus detection reagent (GE Healthcare, Piscataway, N.J.) and a Molecular Devices Storm 840 phosphorimager in fluorescence mode. Blots were stripped and probed for total KIT using an antibody from Santa Cruz Biotech (Santa Cruz, Calif.). IC50 values were calculated using Prism software (Graphpad, San Diego, Calif.).

[6] = target: Phospho-KIT (Tyr719) in GIST48 cells (Homo sapiens, UniProt P10721); assay: GIST48 KIT Western Blot; type: cell-based; conditions: 4 hours, read-out: pKIT suppression by western blot analysi GIST48
Description: as §2
as §3, with “Two” for “One”, “RPMI1640” for “Ham's F10”

T2 sequence (P10721 544-976 T670I): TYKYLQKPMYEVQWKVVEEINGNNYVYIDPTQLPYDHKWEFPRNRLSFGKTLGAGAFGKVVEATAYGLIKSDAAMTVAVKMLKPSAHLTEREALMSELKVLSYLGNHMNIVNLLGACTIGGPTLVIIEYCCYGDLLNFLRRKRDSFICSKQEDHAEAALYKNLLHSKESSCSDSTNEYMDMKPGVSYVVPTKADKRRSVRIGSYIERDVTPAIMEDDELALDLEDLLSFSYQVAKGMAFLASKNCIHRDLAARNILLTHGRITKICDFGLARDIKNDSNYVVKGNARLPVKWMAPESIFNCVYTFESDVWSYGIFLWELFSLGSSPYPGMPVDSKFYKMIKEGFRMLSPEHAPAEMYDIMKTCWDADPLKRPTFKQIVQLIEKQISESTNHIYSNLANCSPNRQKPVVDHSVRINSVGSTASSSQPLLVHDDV
T1 sequence (P10721 544-976 D816V): as the sequence (P10721 544-976 T670I) above, with I127T, D273V counted along it
T3 sequence (P10721 with tags, fused parts or gaps): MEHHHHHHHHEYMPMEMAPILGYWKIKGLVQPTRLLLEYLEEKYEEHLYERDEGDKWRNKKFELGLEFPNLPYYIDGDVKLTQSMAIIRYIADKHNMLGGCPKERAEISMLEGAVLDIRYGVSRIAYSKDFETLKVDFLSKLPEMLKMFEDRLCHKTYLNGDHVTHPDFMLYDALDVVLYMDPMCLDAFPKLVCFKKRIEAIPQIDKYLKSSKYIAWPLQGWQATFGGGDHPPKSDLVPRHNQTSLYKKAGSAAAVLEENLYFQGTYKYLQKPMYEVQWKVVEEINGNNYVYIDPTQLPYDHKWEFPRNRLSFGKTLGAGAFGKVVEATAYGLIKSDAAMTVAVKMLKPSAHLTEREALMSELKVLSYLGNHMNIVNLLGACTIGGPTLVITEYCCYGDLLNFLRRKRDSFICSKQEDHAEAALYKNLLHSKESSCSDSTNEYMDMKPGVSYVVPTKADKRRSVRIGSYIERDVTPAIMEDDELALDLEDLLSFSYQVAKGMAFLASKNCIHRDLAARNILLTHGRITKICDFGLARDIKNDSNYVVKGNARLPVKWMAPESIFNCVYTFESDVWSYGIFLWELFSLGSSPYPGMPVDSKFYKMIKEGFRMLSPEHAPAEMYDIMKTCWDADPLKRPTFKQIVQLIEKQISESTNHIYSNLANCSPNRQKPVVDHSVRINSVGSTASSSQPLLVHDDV
T4 sequence (P10721 544-976 D816H): as the sequence (P10721 544-976 T670I) above, with I127T, D273H counted along it
Chain of Phospho-KIT (Tyr719) in GIST48 cells (P10721 whole entry V560D/D820A, form open): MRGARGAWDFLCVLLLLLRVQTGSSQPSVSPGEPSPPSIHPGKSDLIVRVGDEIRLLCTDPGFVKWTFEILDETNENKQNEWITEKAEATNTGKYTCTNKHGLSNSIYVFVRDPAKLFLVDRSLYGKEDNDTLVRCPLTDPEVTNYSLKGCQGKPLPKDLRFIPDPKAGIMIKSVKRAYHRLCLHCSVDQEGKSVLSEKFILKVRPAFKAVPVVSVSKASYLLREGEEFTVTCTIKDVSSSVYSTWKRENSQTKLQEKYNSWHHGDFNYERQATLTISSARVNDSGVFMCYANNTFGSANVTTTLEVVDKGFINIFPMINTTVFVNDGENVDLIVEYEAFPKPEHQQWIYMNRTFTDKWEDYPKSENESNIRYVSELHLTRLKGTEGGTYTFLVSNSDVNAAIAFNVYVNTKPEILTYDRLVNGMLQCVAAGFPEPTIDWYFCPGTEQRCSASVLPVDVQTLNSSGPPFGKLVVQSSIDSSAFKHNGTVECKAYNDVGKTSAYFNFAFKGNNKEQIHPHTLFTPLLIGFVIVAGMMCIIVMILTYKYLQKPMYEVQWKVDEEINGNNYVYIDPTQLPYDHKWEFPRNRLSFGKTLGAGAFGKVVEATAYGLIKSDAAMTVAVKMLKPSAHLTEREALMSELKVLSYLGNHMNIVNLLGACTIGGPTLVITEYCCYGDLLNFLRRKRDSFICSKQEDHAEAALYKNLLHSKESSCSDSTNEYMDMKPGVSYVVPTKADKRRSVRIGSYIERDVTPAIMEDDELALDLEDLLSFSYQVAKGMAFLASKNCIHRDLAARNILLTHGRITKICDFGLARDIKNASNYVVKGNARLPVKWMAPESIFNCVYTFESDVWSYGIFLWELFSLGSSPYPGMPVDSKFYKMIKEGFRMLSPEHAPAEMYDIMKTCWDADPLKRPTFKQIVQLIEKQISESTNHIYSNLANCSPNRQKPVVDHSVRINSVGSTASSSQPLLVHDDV
Chain of Phospho-KIT (Tyr719) in GIST430 cells (P10721 with tags, fused parts or gaps DEL560-576/V654A, form open): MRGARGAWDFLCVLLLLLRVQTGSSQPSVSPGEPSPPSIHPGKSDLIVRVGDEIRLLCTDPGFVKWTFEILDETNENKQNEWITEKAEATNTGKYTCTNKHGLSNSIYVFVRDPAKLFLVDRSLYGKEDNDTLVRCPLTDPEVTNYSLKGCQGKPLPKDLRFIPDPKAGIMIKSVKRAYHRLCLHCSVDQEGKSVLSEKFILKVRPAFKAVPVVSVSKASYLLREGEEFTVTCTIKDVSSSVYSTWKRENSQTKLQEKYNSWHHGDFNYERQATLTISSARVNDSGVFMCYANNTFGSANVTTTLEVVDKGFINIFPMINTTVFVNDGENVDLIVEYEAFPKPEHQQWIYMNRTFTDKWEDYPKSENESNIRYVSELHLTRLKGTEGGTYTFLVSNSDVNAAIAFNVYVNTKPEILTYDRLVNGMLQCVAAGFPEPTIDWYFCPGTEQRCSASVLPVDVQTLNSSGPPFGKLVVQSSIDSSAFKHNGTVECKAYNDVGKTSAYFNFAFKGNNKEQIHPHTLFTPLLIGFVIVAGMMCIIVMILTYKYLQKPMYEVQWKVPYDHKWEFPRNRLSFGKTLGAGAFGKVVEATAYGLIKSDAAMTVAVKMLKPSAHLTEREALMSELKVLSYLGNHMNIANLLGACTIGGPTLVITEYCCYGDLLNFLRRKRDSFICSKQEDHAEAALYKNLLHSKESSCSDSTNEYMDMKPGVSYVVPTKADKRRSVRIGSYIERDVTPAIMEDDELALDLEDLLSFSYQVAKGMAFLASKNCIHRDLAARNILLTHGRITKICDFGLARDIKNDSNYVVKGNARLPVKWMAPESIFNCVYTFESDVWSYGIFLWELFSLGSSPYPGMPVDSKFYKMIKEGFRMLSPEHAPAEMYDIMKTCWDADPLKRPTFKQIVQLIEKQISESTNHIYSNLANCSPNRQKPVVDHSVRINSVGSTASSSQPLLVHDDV

Structure (SMILES)	IC50 [1] [nM]	IC50 [2] [nM]	IC50 [3] [nM]	IC50 [4] [nM]	IC50 [5] [nM]	IC50 [6] [nM]
CCn1c(=O)c(-c2cc(NC(=O)Nc3ccccc3)c(F)cc2Cl)cc2cnc(NCCS(C)(=O)=O)cc21 [Example 48, 1-(4-chloro-5-(1-ethyl-7-(2-(methylsulfonyl)ethylamino)-2-oxo-1,2-dihydro-1,6-naphthyridin-3-yl)-2-fluorophenyl)-3-phenylurea]	100 to 1000	> 1000	10 to 100	–	–	–
CCn1c(=O)c(-c2cc(NC(=O)Nc3ccccc3)c(F)cc2Cl)cc2cnc(NC3CCN(C)C3)cc21 (stereo not drawn) [Example 49, 1-(4-chloro-5-(1-ethyl-7-(1-methylpyrrolidin-3-ylamino)-2-oxo-1,2-dihydro-1,6-naphthyridin-3-yl)-2-fluorophenyl)-3-phenylurea]	100 to 1000	100 to 1000	10 to 100	–	–	–
CCn1c(=O)c(-c2cc(NC(=O)Nc3ccccc3)c(F)cc2Cl)cc2cnc(NC(=O)[C@@H]3CCCN3)cc21 [Example 85, (S)—N-(3-(2-chloro-4-fluoro-5-(3-phenylureido)phenyl)-1-ethyl-2-oxo-1,2-dihydro-1,6-naphthyridin-7-yl)pyrrolidine-2-carboxamide]	10 to 100	100 to 1000	10 to 100	–	–	–
CCn1c(=O)c(-c2cc(NC(=O)Nc3ccc(F)c(CN4CCCC4)c3)c(F)cc2Cl)cc2cnc(NC)cc21 [Example 97, 1-(4-chloro-5-(1-ethyl-7-(methylamino)-2-oxo-1,2-dihydro-1,6-naphthyridin-3-yl)-2-fluorophenyl)-3-(4-fluoro-3-(pyrrolidin-1-ylmethyl)phenyl)urea]	> 1000	10 to 100	< 10	10 to 100	–	–
CCn1c(=O)c(-c2cc(NC(=O)Nc3ccc(F)c(CN4CCOCC4)c3)c(F)cc2Cl)cc2cnc(NC=O)cc21 [Example 107, N-(3-(2-chloro-4-fluoro-5-(3-(4-fluoro-3-(morpholinomethyl)phenyl)ureido)phenyl)-1-ethyl-2-oxo-1,2-dihydro-1,6-naphthyridin-7-yl)formamide]	> 1000	10 to 100	10 to 100	–	–	–
CCn1c(=O)c(-c2cc(NC(=O)Nc3ccccc3)c(F)cc2C)cc2cnc(Nc3ccc(C)nc3)cc21 [Example 111, 1-(5-(1-ethyl-7-((6-methylpyridin-3-yl)amino)-2-oxo-1,2-dihydro-1,6-naphthyridin-3-yl)-2-fluoro-4-methylphenyl)-3-phenylurea]	10 to 100	100 to 1000	10 to 100	–	–	–

Continued, values first:

IC50 [1] [nM]	IC50 [2] [nM]	IC50 [3] [nM]	IC50 [4] [nM]	IC50 [5] [nM]	IC50 [6] [nM]	Structure (SMILES)
10 to 100	> 1000	< 10	–	–	–	CCn1c(=O)c(-c2cc(NC(=O)Nc3ccccc3)c(F)cc2Cl)cc2cnc(NC3CCOC3)cc21 (stereo not drawn) [Example 47, 1-(4-chloro-5-(1-ethyl-2-oxo-7-(THF-3-ylamino)-1,2-dihydro-1,6-naphthyridin-3-yl)-2-fluorophenyl)-3-phenylurea]
–	–	< 10	100 to 1000	–	–	CCn1c(=O)c(-c2cc(NC(=O)Nc3ccccc3)c(F)cc2Br)cc2cnc(NCCS(C)(=O)=O)cc21 [Example 52, 1-(4-bromo-5-(1-ethyl-7-(2-(methylsulfonyl)ethylamino)-2-oxo-1,2-dihydro-1,6-naphthyridin-3-yl)-2-fluorophenyl)-3-phenylurea]
10 to 100	10 to 100	< 10	–	10 to 100	100 to 1000	CCn1c(=O)c(-c2cc(NC(=O)Nc3ccccc3)c(F)cc2F)cc2cnc(NC(C)=O)cc21 [Example 66, 1-(5-(7-acetamido-1-ethyl-2-oxo-1,2-dihydro-1,6-naphthyridin-3-yl)-2,4-difluorophenyl)-3-phenylurea]
100 to 1000	10 to 100	< 10	100 to 1000	–	–	CCn1c(=O)c(-c2cc(NC(=O)Nc3ccccc3)c(F)cc2F)cc2cnc(NC(=O)CC#N)cc21 [Example 75, 2-cyano-N-(3-(2,4-difluoro-5-(3-phenylureido)phenyl)-1-ethyl-2-oxo-1,2-dihydro-1,6-naphthyridin-7-yl)acetamide]
10 to 100	100 to 1000	< 10	–	–	–	CCn1c(=O)c(-c2cc(NC(=O)Nc3ccccc3)c(F)cc2C#N)cc2cnc(NC)cc21 [Example 76, 1-(4-cyano-5-(1-ethyl-7-(methylamino)-2-oxo-1,2-dihydro-1,6-naphthyridin-3-yl)-2-fluorophenyl)-3-phenylurea]
> 1000	10 to 100	< 10	–	–	–	CCn1c(=O)c(-c2cc(NC(=O)Nc3ccc(F)c(CN(C)C)c3)c(F)cc2Cl)cc2cnc(NC)cc21 [Example 94, 1-(4-chloro-5-(1-ethyl-7-(methylamino)-2-oxo-1,2-dihydro-1,6-naphthyridin-3-yl)-2-fluorophenyl)-3-(3-((dimethylamino)methyl)-4-fluorophenyl)urea]
